From PubChem BioAssay AID624129 (Sanford-Burnham Center for Chemical Genomics, 2012) come the findings set out here.

Molecules are shown by their SMILES. Activity calls are given as the source filed them. The rule behind the calls is not given here.

The assay has as its target C-X-C chemokine receptor type 6 (Homo sapiens) (UniProt O00574). Briefly: potency against CXCR6 with APJ panel – cell-based, beta-arrestin, DiscoveRx, uHTS hits, dose response (AID 624129). To be noted: CXCR6 beta-arrestin (DiscoveRx) antagonist cell assay; for outcome: CXCR6, dose range 1; for inhibition: CXCR6, run 2, dose range 1, at 79 µM (top of the series).
Setting [1] is: CXCR6, dose range 1, mean IC50 across replicates.

C-X-C chemokine receptor type 6 (Homo sapiens), sequence (O00574 whole entry, looked up): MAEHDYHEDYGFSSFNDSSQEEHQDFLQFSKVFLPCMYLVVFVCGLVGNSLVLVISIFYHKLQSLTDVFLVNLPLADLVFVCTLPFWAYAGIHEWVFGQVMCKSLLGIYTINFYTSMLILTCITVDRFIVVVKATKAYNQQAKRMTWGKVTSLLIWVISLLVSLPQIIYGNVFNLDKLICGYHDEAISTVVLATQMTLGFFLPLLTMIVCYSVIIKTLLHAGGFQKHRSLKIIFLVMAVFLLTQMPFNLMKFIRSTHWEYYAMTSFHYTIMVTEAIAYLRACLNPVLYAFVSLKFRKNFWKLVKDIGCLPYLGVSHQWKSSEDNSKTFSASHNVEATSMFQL

What is called IC50 is the midpoint of a concentration-inhibition curve. Low readings indicate inhibition by little substance, high ones a need for much substance. What is called inhibition is the drop in the measured response relative to a control, in per cent. In the case of `CCOc1cc(/C=C2\C(=O)N(c3cccc(C(F)(F)F)c3)C(=O)c3ccccc32)ccc1O`, the result was inactive and the inhibition stood at 81%. For the same molecule, the IC50 under setting [1] is 49.2 µM. This molecule also registered an IC50 (CXCR6, run 1, dose range 2) of 49.2 µM. The molecule also yielded an IC50 (CXCR6, run 2, dose range 2) of more than 79 µM.

As to `O=C(Nc1ccccc1Oc1ccccc1)[C@@H]1O[C@H](CO)[C@H](O)[C@H](O)[C@H]1O`, the outcome was inactive and the inhibition came out at 99.6%. Further, the IC50 under setting [1] is 14.2 µM. The IC50 (CXCR6, run 1, dose range 2) amounted to 12.4 µM. This molecule also showed an IC50 (CXCR6, run 2, dose range 2) of 15.9 µM.

In the case of `C=CC[n+]1c(-c2ccc(Cl)cc2Cl)csc1Nc1c(C)n(C)n(-c2ccccc2)c1=O`, the outcome was inactive and the inhibition was 101%. Under setting [1], this molecule registered an IC50 of 40 µM. In addition, the IC50 (CXCR6, run 1, dose range 2) came out at 29.2 µM. Moreover, where the note is “CXCR6, run 2, dose range 2”, the IC50 was 50.8 µM.

Regarding `COc1cccc2sc(N(CCCN(C)C)C(=O)CCS(=O)(=O)c3ccccc3)nc12`, the result was inactive and the inhibition worked out at 111%. In addition, the IC50 under setting [1] worked out at 14.7 µM. This molecule registered an IC50 (CXCR6, run 1, dose range 2) of 13.5 µM. Moreover, the IC50 (CXCR6, run 2, dose range 2) amounted to 15.9 µM.

For `COC(=O)C1=C(C(=O)OC)SC2(S1)C(C(=O)OC)=C(C(=O)OC)Sc1c2ssc1=O`, the result was inactive and the inhibition stood at 112%. Under setting [1], this molecule registered an IC50 of 23.2 µM. Moreover, the IC50 (CXCR6, run 1, dose range 2) came out at 20.3 µM. The same molecule registered an IC50 (CXCR6, run 2, dose range 2) of 26 µM.

Take `COc1ccc(-c2c(C(=O)c3ccccc3)[nH]c(N)c2C(=O)c2ccc(Br)cc2)cc1OC`: the result was inactive and the inhibition worked out at 86.6%. Under setting [1], this molecule registered an IC50 of 17.4 µM. The IC50 (CXCR6, run 1, dose range 2) came to 16.4 µM. Also, the IC50 (CXCR6, run 2, dose range 2) came out at 18.4 µM.

As for `CN(C)CC1CC/C(=C\c2ccc(O)cc2)C1=O` (stereo not given), the outcome was inactive and the inhibition was 111%. This molecule had an IC50 under setting [1] of 14 µM. Under “CXCR6, run 1, dose range 2”, this molecule came in with an IC50 of 14.3 µM. Under “CXCR6, run 2, dose range 2”, this molecule yielded an IC50 of 13.8 µM.

For `CN(C)CCCN(C(=O)CCS(=O)(=O)c1ccccc1)c1nc2cc3c(cc2s1)OCO3`, the outcome was inactive and the inhibition was 110%. Further, under setting [1], the IC50 stood at 14.9 µM. Under “CXCR6, run 1, dose range 2”, the IC50 turned out to be 14.3 µM. Besides, the IC50 (CXCR6, run 2, dose range 2) stood at 15.5 µM.

`O=C(N/N=C/c1ccc([N+](=O)[O-])o1)c1sc2ccccc2c1Cl`: the outcome was inactive and the inhibition worked out at 97%. Moreover, the IC50 under setting [1] amounted to 19.5 µM. This molecule showed an IC50 (CXCR6, run 1, dose range 2) of 19.2 µM. Besides, the IC50 (CXCR6, run 2, dose range 2) came to 19.9 µM.

Consider `COC(=O)c1cc([N+](=O)[O-])c(-n2cncn2)c([N+](=O)[O-])c1`, for which the outcome was inactive and the inhibition was 113%. Also, the IC50 under setting [1] stood at 16.2 µM. Moreover, where the note is “CXCR6, run 1, dose range 2”, the IC50 turned out to be 13.9 µM. The IC50 (CXCR6, run 2, dose range 2) is 18.4 µM.

On to `CCOC(=O)C1CCCN(c2c(C(=O)c3ccccc3)cnc3ccc(OC)cc23)C1` (stereo not given), for which the outcome was inactive and the inhibition amounted to 99.5%. Further, the concentration for half-maximal inhibition (IC50) under setting [1] was 14.4 µM. Further, the IC50 (CXCR6, run 1, dose range 2) worked out at 17.9 µM. Moreover, the IC50 (CXCR6, run 2, dose range 2) stood at 10.9 µM.

With `CCCSc1cc(NCCOC(=O)CCC)c([N+](=O)[O-])c2nonc12`, the result was inactive and the inhibition was determined as 112%. Under setting [1], this molecule displayed an IC50 of 17.7 µM. Moreover, the IC50 (CXCR6, run 1, dose range 2) stood at 17.6 µM. In addition, where the note is “CXCR6, run 2, dose range 2”, the IC50 was 17.9 µM.

In the case of `COc1ccc(C(=O)NC(=S)Nc2ccc([N+](=O)[O-])cc2C)cc1OC`, the result was inactive and the inhibition came to 100%. Also, under setting [1], the IC50 worked out at 21.7 µM. Moreover, the IC50 (CXCR6, run 1, dose range 2) came to 18.3 µM. The same molecule registered an IC50 (CXCR6, run 2, dose range 2) of 25.1 µM.

Consider `CCOc1ccc(Nc2ccc([N+](=O)[O-])c3nonc23)cc1`, for which the outcome was inactive and the inhibition is 81.7%. For the same molecule, under setting [1], the IC50 was 38.8 µM. The molecule also had an IC50 (CXCR6, run 1, dose range 2) of 33.7 µM. The molecule also gave an IC50 (CXCR6, run 2, dose range 2) of 43.9 µM.

As to `O=[N+]([O-])c1ccc(N/N=C/c2sc(N3CCOCC3)nc2-c2ccccc2)c(S(=O)(=O)Nc2ccc(Cl)cc2)c1`, the outcome was inactive and the inhibition was found to be 99.6%. Under setting [1], this molecule gave an IC50 of 55.1 µM. In addition, where the note is “CXCR6, run 1, dose range 2”, the IC50 was determined as 72.8 µM. The molecule also registered an IC50 (CXCR6, run 2, dose range 2) of 37.3 µM.

On to `COC(=O)c1ccc(NC(=O)c2nc(S(=O)(=O)Cc3cccc(C)c3)ncc2Cl)cc1`, for which the result was inactive and the inhibition was 107%. Under setting [1], this molecule yielded an IC50 of 16.3 µM. Besides, the concentration for half-maximal inhibition (IC50) (CXCR6, run 1, dose range 2) came out at 15.4 µM. For the same molecule, for the setting “CXCR6, run 2, dose range 2”, the IC50 was 17.2 µM.

For `NC(=S)NN=C1c2cc(Cl)ccc2-c2c1cc(Cl)cc2[N+](=O)[O-]`, the outcome was inactive and the inhibition came out at 93.3%. The same molecule returned an IC50 under setting [1] of 14.1 µM. The half-maximal inhibitory concentration (IC50) (CXCR6, run 1, dose range 2) worked out at 11.7 µM. Also, for the setting “CXCR6, run 2, dose range 2”, the IC50 amounted to 16.4 µM.

As for `O=[N+]([O-])c1cc(-c2ncccn2)c([N+](=O)[O-])s1`, the result was inactive and the inhibition stood at 111%. Also, under setting [1], the IC50 is 24 µM. The same molecule gave a half-maximal inhibitory concentration (IC50) (CXCR6, run 1, dose range 2) of 23.8 µM. This molecule came in with an IC50 (CXCR6, run 2, dose range 2) of 24.3 µM.
